Data from ChEMBL document CHEMBL5380791, “Modular Biomimetic Strategy Enabled Discovery of Simplified Pseudo-Natural Macrocyclic P-Glycoprotein Inhibitors Capable of Overcoming Multidrug Resistance” (J Med Chem, 2023).
Activity calls are given as the source filed them. The rule behind the calls is not given here.

What was measured:
KBv200 [1] = assay: Reversal fold, ratio of vinorelbine IC50 for cytotoxicity against human KBv200 cells over test compound IC50 for reversal of vinorelbine resistance in human KBv200 cells; format: functional
KBv200 [2] = assay: Reversal of vinorelbine resistance in human KBv200 cells assessed as reduction in cell viability incubated for 72 hrs in presence of vinorelbine (reference value: 224 to 228.30 nM); format: functional, cell-based; details: KBv200, 72 h
OVCAR-8 = assay: Reversal of vinorelbine resistance in human OVCAR-8 cells assessed as reduction in cell viability incubated for 72 hrs in presence of vinorelbine (reference value: 16.2+/-4.7 nM); format: functional, cell-based; details: OVCAR-8, 72 h
NCI/ADR-RES = assay: Reversal of vinorelbine resistance in human NCI/ADR-RES cells assessed as reduction in cell viability incubated for 72 hrs in presence of vinorelbine (reference value: 6125.7+/-3267.7 nM); format: functional, cell-based
K562 = assay: Reversal of vinorelbine resistance in human K562 cells assessed as reduction in cell viability incubated for 72 hrs in presence of vinorelbine (reference value: 5.9+/-0.2 nM); format: functional, cell-based; details: K562, 72 h
KBv200 [3] = assay: Reversal of adriamycin resistance in human KBv200 cells assessed as reduction in cell viability incubated for 72 hrs in presence of adriamycin (reference value: 1291.2+/-308.9 nM); format: functional, cell-based; details: KBv200, 72 h
K562/Adr = assay: Reversal of vinorelbine resistance in human K562/Adr cells assessed as reduction in cell viability incubated for 72 hrs in presence of vinorelbine (reference value: 7320.6+/-2115.2 nM); format: functional, cell-based
KBv200 [4] = assay: Reversal of paclitaxel resistance in human KBv200 cells assessed as reduction in cell viability incubated for 72 hrs in presence of paclitaxel (reference value: 392.9+/-196.5 nM); format: functional, cell-based; details: KBv200, 72 h
KB = assay: Reversal of vinorelbine resistance in human KB cells assessed as reduction in cell viability incubated for 72 hrs in presence of vinorelbine (reference value: 7.4+/-2.2 nM); format: functional, cell-based
KBv200 [5] = assay: Antitumor activity against human KBv200 cells xenografted in Balb/cA nude mouse assessed as mean tumor volume at 8 mg/kg, iv administered as single dose and measured on day 0; format: functional
KBv200 [6] = assay: Antitumor activity against human KBv200 cells xenografted in Balb/cA nude mouse assessed as T/C ratio at 8 mg/kg, iv q4d administered for 13 days; format: functional; details: time 13 day
KBv200 [7] = assay: Antitumor activity against human KBv200 cells xenografted in Balb/cA nude mouse assessed as tumor growth inhibition at 8 mg/kg, iv q4d administered for 13 days; format: functional; details: KBv200, 312 h, time 13 day
KBv200 [8] = assay: Induction of apoptosis in human KBv200 cells assessed as increase in cleaved caspase 3 level at 5 uM incubated for 24 hrs by Western blotting analysis; format: functional, cell-based
KBv200 [9] = assay: Induction of apoptosis in human KBv200 cells assessed as increase in cleaved caspase 9 level at 5 uM incubated for 24 hrs by Western blotting analysis; format: functional, cell-based
[10] = Toxicity in Balb/cA nude mouse xenografted with human KBv200 cells assessed as mortality at 75 mg/kg, ip qd administered for 13 days in presence of vinorelbine; format: organism-based; details: in vivo, 312 h, time 13 day
[11] = Toxicity in Balb/cA nude mouse xenografted with human KBv200 cells assessed as changes in body weight at 75 mg/kg, ip qd administered for 13 days in presence of vinorelbine; format: organism-based; details: in vivo, 312 h, time 13 day
KBv200 [12] = assay: Induction of apoptosis in human KBv200 cells assessed as increase in cleaved PARP level at 5 uM incubated for 24 hrs by Western blotting analysis; format: functional, cell-based
KBv200 [13] = assay: Antitumor activity against human KBv200 cells xenografted in Balb/cA nude mouse assessed as mean tumor volume at 8 mg/kg, iv q4d administered for 13 days; format: functional; details: time 13 day

SMILES | Ratio IC50 (KBv200 [1]) | IC50 (KBv200 [2]; read-out: IC50) [nM] | other results
CC(=O)N[C@@H]1[C@@H](O)[C@H](O)[C@@H](CO)O[C@H]1n1cc(C[C@@H]2NC(=O)/C(c3ccccc3)=C\C=C(\c3ccccc3)CNC(=O)CCCCCCCCCCCNC2=O)nn1 | 1.5 | 152 | 
CC(C)C1NC(=O)/C(c2ccccc2)=C\C=C(\c2ccccc2)CNC(=O)CCCCCCCCCCCNC1=O (stereo not drawn) | 202 | 1.13 | 
COc1ccc(/C2=C/C=C(/c3ccccc3)CNC(=O)CCCCCCCCCCCNC(=O)[C@H](C(C)C)NC2=O)cc1OC | 63 | 3.65 | 
COc1ccc(/C2=C/C=C(/c3ccccc3)CNC(=O)CCCCCCCCCCCNC(=O)[C@H](C(C)C)NC2=O)cc1 | 519 | 0.44 | 
CC(C)C[C@@H]1NC(=O)/C(c2ccccc2)=C\C=C(\c2ccccc2)CNC(=O)CCCCCCCCCCCNC1=O | 415 | 0.55 | 
CC(C)[C@@H]1NC(=O)/C(c2ccc(Br)cc2)=C\C=C(\c2ccccc2)CNC(=O)CCCCCCCCCCCNC1=O | 570 | 0.4 | 
CC(=O)N[C@@H]1[C@@H](OC(C)=O)[C@H](OC(C)=O)[C@@H](COC(C)=O)O[C@H]1n1cc(C[C@@H]2NC(=O)/C(c3ccccc3)=C\C=C(\c3ccccc3)CNC(=O)CCCCCCCCCCCNC2=O)nn1 | 0.9 | 248 | 
CC(C)[C@H]1NC(=O)/C(c2cccc3ccccc23)=C\C=C(\c2ccccc2)CNC(=O)CCCCCCCCCCCNC1=O | 1291 | 0.21 | 
CC(C)[C@H](NC(=O)/C(=C/C=C(/CNC(=O)CCCCCCCCCCCN)c1ccccc1)c1ccccc1)C(=O)O | 1.1 | 199 | 
COc1ccc(/C2=C/C=C(/c3ccccc3)C(=O)N[C@@H](C(C)C)C(=O)NCCCCCCCCCCCC(=O)NC2)cc1 | 148 | 1.54 | 
CC(C)[C@@H]1NC(=O)/C(c2cccc3ccccc23)=C\C=C(\c2ccccc2)CNC(=O)CCCCCCCCCCCNC1=O | 761 | 0.3 | 
CC(C)[C@@H]1NC(=O)/C(c2ccccc2)=C/C=C(/c2ccccc2)CNC(=O)CCCCCCCNC1=O | 5 | 46.6 | 
CSCC[C@@H]1NC(=O)/C(c2ccccc2)=C\C=C(\c2ccccc2)CNC(=O)CCCCCCCCCCCNC1=O | 184 | 1.24 | 
CC(C)[C@@H]1NC(=O)/C(c2ccccc2)=C\C=C(\c2ccccc2)CNC(=O)CCCCCCCCCNC1=O | 50 | 4.57 | 
O=C1CCCCCCCCCCCNC(=O)[C@H](Cc2cn([C@@H]3O[C@H](CO)[C@H](O)[C@H](O)[C@H]3O)nn2)NC(=O)/C(c2ccccc2)=C\C=C(\c2ccccc2)CN1 | 1.6 | 140 | 
CC(C)[C@@H]1NC(=O)/C(c2ccccc2)=C\C=C(\c2ccccc2)CNC(=O)CCOCCOCCOCCNC1=O | 1.8 | 127 | 

SMILES | Ratio IC50 (KBv200 [1]) | IC50 (KBv200 [2]; read-out: IC50) [nM] | other results
O=C1CCCCCCCCCCCNC(=O)[C@H](Cc2ccc(O)cc2)NC(=O)/C(c2ccccc2)=C\C=C(\c2ccccc2)CN1 | 130 | 1.76 | 
O=C1CCCCCCCCCCCNC(=O)CNC(=O)/C(c2ccccc2)=C\C=C(\c2ccccc2)CN1 | 9 | 24.5 | 
O=C1CCCCCCCCCCCNC(=O)[C@H](Cc2cn([C@@H]3O[C@H](CO)[C@@H](O)[C@H](O)[C@H]3O)nn2)NC(=O)/C(c2ccccc2)=C\C=C(\c2ccccc2)CN1 | 1.3 | 169 | 
COc1ccc(CCN(C)CCCC(C#N)(c2ccc(OC)c(OC)c2)C(C)C)cc1OC (stereo not drawn) [VERAPAMIL] | 33 |  | IC50 (OVCAR-8): 8.5 nM; IC50 (NCI/ADR-RES): 289 nM; IC50 (K562): 4.3 nM; IC50 (KBv200 [3]): 145 nM; IC50 (K562/Adr): 446 nM; IC50 (KBv200 [4]): 18.2 nM; IC50 (KB): 4.4 nM; IC50 (KBv200 [2]): 6.96 nM
NC(=O)CC[C@@H]1NC(=O)/C(c2ccccc2)=C\C=C(\c2ccccc2)CNC(=O)CCCCCCCCCCCNC1=O | 1 | 210 | 
O=C1CCCCCCCCCCCNC(=O)[C@@H]2CCCN2C(=O)/C(c2ccccc2)=C\C=C(\c2ccccc2)CN1 | 26 | 8.63 | 
O=C1CCCCCCCCCCCNC(=O)[C@H](Cc2ccccc2)NC(=O)/C(c2cccc3ccccc23)=C\C=C(\c2ccccc2)CN1 | 4566 | 0.05 | 
CC(C)[C@@H]1NC(=O)/C(c2ccccc2)=C\C=C(\c2ccccc2)CNC(=O)CCCCCCCCCCCNC1=O | 192 | 1.19 | 
NCCCC[C@@H]1NC(=O)/C(c2ccccc2)=C\C=C(\c2ccccc2)CNC(=O)CCCCCCCCCCCNC1=O | 0.8 | 289 | 
C#CC[C@@H]1NC(=O)/C(c2ccccc2)=C\C=C(\c2ccccc2)CNC(=O)CCCCCCCCCCCNC1=O | 63 | 3.64 | 
CC(C)[C@@H]1NC(=O)C(c2ccccc2)CCC(c2ccccc2)CNC(=O)CCCCCCCCCCCNC1=O (stereo partly drawn) | 64 | 3.58 | 
O=C1CCCCCCCCCCCNC(=O)[C@H](Cc2c[nH]c3ccccc23)NC(=O)/C(c2ccccc2)=C\C=C(\c2ccccc2)CN1 | 2 | 140 | 
CC(C)[C@@H]1NC(=O)/C(c2ccccc2)=C\C=C(\c2ccc(F)cc2)CNC(=O)CCCCCCCCCCCNC1=O | 543 | 0.42 | 
CC(C)[C@@H]1NC(=O)/C(c2ccccc2)=C\C=C/CNC(=O)CCCCCCCCCCCNC1=O | 61 | 3.76 | 
CCC1=C[C@@H]2CN(C1)Cc1c([nH]c3ccccc13)[C@@](C(=O)OC)(c1cc3c(cc1OC)N(C)[C@H]1[C@@](O)(C(=O)OC)[C@H](OC(C)=O)[C@]4(CC)C=CCN5CC[C@]31[C@@H]54)C2 [VINORELBINE] |  |  | Activity (KBv200 [5]): 122.3 mm3; T/C (KBv200 [6]): 82%; inhibition in vivo at 8 mg/kg (KBv200 [7]): 18%; Activity (KBv200 [8]): inactive; Activity (KBv200 [9]): inactive; Activity [10]: Non-Toxic; Activity [11]: Non-Toxic; Activity (KBv200 [12]): inactive; Activity (KBv200 [13]): 1727.4 mm3
O=C1CCCCCCCCCCCNC(=O)[C@H](Cc2ccccc2)NC(=O)/C(c2ccccc2)=C\C=C(\c2ccccc2)CN1 | 601 | 0.38 | 
